Measured values as given in US12168003B2, “Selective inhibition of T follicular helper cells for treatment of autoimmune disorders” (priority 2019, dated 2024).

What was measured:
[1] = tested on: TH1 and TH17 cells; experiment: S. aureus sub-dermal ear pinnae infection model; format: in vivo, mouse
Protocol: S. aureus subspecies Rosenbach (ATCC 25923) was grown overnight in TSB broth (Corning). Following quantification, 1×10^8 CFU of S. aureus in 100 μL were injected subdermal in the base of the ear pinnae. On days 0 through 7, mice were treated daily with i.p. 25 mg/kg 4EGI-1 or vehicle. On day 8, mice were euthanized and the whole infected ear was collected along with the cervical lymph node (CLN) and blood. Blood was allowed to clot at room temperature, spun at 2,000×g for 30 minutes, and serum was collected and frozen until analysis. Ear thickness was measured with a digital caliper on day 8.
Spleens, draining lymph nodes, and brains were dissociated with the plunger-end of a syringe and passed through a 70 μm nylon filter. Splenocytes were subject to RBC lysis with ACK (Ammonium-Chloride-Potassium). Ears were subject to mechanical dissociation with scissors prior to incubation in 1 mL PBS in a 48-well plate with 100 μg/mL Liberase TL and 20 μg/mL DNase I for 1.5 hours at 37° C. Following incubation, cells were further dissociated by passing through a syringe, quenched with PBS+2% FCS, and filtered through a 70 μm nylon filter. Lungs were mechanically dissociated with a razor blade and incubated in a 6 cm dish with 5 mLs RPMI containing 250 μg/mL collagenase, 50 μg/mL Liberase TL, 1 mg/mL hyaluronidase, and 200 μg/mL DNase I for 30 minutes. Following incubation, cells quenched with PBS+2% FCS, and filtered through a 70 μm nylon filter. Ear and lung cells were subject to lymphocyte isolation using a gradient (Lymphocyte Separation Medium; Cellgro). Vertebral columns were flushed with PBS through a 19-gauge needle to remove intact spinal cords. Spinal cords were subject to mechanical dissociation with scissors and incubation in 1 mL PBS with 200 μg/mL DNase I and 50 μg/mL Liberase TL for 30 minutes at 37° C. Following incubation, cells were quenched with PBS+2% FCS and filtered through a 70 μm nylon filter.
Single cell suspensions of noted tissues were resuspended in T cell media with 1× PMA/Ionomycin (cell activation cocktail; BioLegend®) and 1× brefeldin A (BioLegend®) for 5-6 hours at 37° C. Following stimulation, cells were incubated with a live/dead viability marker and extracellular stain prior to fix and permeabilization with Fixation/Permeabilization Solution kit (BD Biosciences) according to manufacturer's instructions to detect intracellular cytokines IL-17A, IFN-γ, or IL-13. Concentration and clones of flow cytometry antibodies used for staining detailed in Table 2.
For quantification of OVA-specific IgG1, high-binding 96-well plates (Costar) were coated with 10 μg/mL OVA protein. For S. aureus-specific IgG1, plates were coated with heat-killed S. aureus (heat-killed at 80° C. for 30 min). For total IgE, plates were coated with 2 μg/mL rat anti-mouse IgE (Southern Biotech). Following overnight incubation at 4° C., plates were blocked with 1% BSA for 30 min at 37° C. After blocking, serum (diluted 1/20 initially then 1/2 down the plate) was incubated at 37° C. for 2 hours, plates were washed 3 times in PBS and then incubated with 1:1000 anti-mouse IgG1-HRP (Southern Biotech) or anti-mouse IgE-HRP (Southern Biotech) for 1 hour at 37° C. Plates were washed 3 times in PBS and incubated with TMB substrate. Following development, TMB Stop Solution (BioLegend®) was added and plates were read at […].

[2] = tested on: differentiated TH1, TH2 or TH17 cells; experiment: In vitro CD4+ T cell differentiation and cytokine production; format: cell-based, mouse; details: 20 μM 4EGI-1, 48 hours
Protocol: Naïve CD4^+ T cells were isolated (EasySep™ Naïve CD4^+ T cell isolation; StemCell) and incubated in mouse T cell media (described under “Silencing of eIF4E in OT2 T cells by lentivirus transduction section”) containing soluble 1 μg/mL anti-CD28, cytokines, and anti-cytokine antibodies as detailed for polarization to TH1: 10 ng/mL mouse IL-12, 50 U/mL human IL-2, 10 μg/mL anti-mouse IL-4; TH2: 10 ng/mL mouse IL-4, 50 U/mL human IL-2, 10 μg/mL anti-mouse IFN-γ; TH17: 20 ng/mL mouse IL-6, 10 ng/mL mouse IL-23, 10 ng/mL mouse IL-113, 2 ng/mL human TGF-β1, 50 U/mL human IL-2 […], 10 μg/mL anti-mouse IFN-γ; and Treg: 2 ng/mL mouse TGFβ, 300 U/mL human IL-2. TH1, TH2, and TH17 differentiation kits (Cytobox) along with human IL-2 were purchased from Miltenyi Biotec. Mouse TGFβ was purchased from BioLegend®. Naïve CD4^+ T cells in conditions described above were activated on 10 μg/mL anti-CD3 coated plates for 3 days. Following differentiation, 20 μM 4EGI-1 was added to T cell cultures for 48 hours. Supernatant was removed and cytokine levels were determined using LEGENDPlex Mouse Th Cytokine Panel (BioLegend®).

[3] = tested on: CD4+ T cells from mice immunized with OVA/Alum; experiment: In vitro treatment of mouse splenocytes with 4EGI-1 and SUnSET assay; format: cell-based
Protocol: Mice were immunized with 100 μg OVA/Alum and 7 days following, spleens were harvested and single-cell suspensions were generated. Splenocytes were incubated in mouse T cell media (detailed in Silencing of eIF4E in OT2 T cells by lentivirus transduction) with 0-25 μM 4EGI-1 for 4 hours at 37° C. Cells were stained with a live/dead viability marker and then for extracellular expression of CD4, CXCR5, PD-1, or ICOS or intranuclear expression of BCL6. For the SuNSET assay, cells from above were incubated 37° C. with 10 μg/mL puromycin for 10 minutes. Control samples were incubated with puromycin and 100 μg/mL cycloheximide. Cells were incubated with a live/dead viability marker and extracellular stain prior to fixation and permeabilization (BD Biosciences Fixation/Permeabilization Solution) and intracellular staining with anti-puromycin followed by anti-mouse IgG2a antibody conjugated to Alexa Fluor 488.

[4] = 4EGI-1 up to 25 μM, 4 hours, mouse CD4+ T cells
[5] = 10-25 μM 4EGI-1, 4 hours, mouse CD4+ lymphocytes in culture

Compound: O=C(O)C(Cc1ccccc1[N+](=O)[O-])=NNc1nc(-c2ccc(Cl)c(Cl)c2)cs1 (mixture of isomers) [4EGI-1]
- differentiation or effector function of TH1 cells (T-bet+ or IFN-γ+) in the skin ([1]; 25 mg/kg daily i.p., day 8): no effect
- differentiation or effector function of TH17 cells (RORγT+ or IL17A+) in the skin ([1]; 25 mg/kg daily i.p., day 8): no effect
- general skin inflammation (ear thickness and skin neutrophil levels) ([1]; 25 mg/kg daily i.p., day 8): no effect
- formation of GC B cells in draining lymph nodes ([1]; cervical lymph nodes, day 8): strongly reduced
- formation of TFH cells in draining lymph nodes ([1]; cervical lymph nodes, day 8): strongly reduced
- secretion of class-switched immunoglobulins ([1]; serum S. aureus-specific IgG1, day 8): strongly reduced
- secretion of IFN-γ or TNF-α by differentiated TH1 cells [2]: not altered
- secretion of IL-13 by in vitro differentiated TH2 cells [2]: did not affect
- secretion of IL-17A or IL-17F by differentiated TH17 cells [2]: not altered
- levels of CXCR5 protein [3, 4]: unchanged
- levels of ICOS protein [3, 4]: unchanged
- levels of PD-1 protein [3, 4]: unchanged
- reduction of BCL6 protein levels [3, 4]: ~3 fold
- cell viability [3, 5]: without reducing
- reduction of protein synthesis (SUnSET) [3, 5]: 3-4 fold
